Assay results published in US20100311656A1 (priority 2003, published 2010).

Assays:
[1] = mouse, in vivo
SARS-CoV (Urbani) = assay type: in vivo, mice
[2] = 0.2 mg/kg or 2 mg/kg s.c.; no toxicity controls included; cited from earlier work
[3] = subcutaneously injected; cited from earlier work
[4] = cited from earlier work

Row | Substance | Mean Body Weight Change [1] | Inhibition of lung virus titers (SARS-CoV (Urbani); 50 μg/mouse i.n., positive control, P<0.01) | Virus Titer (Log10 CCID50/g) (SARS-CoV (Urbani); lung, day 3 after infection, 50 μg/mouse i.n., -24 h, +12 h, mean ± SD, P < 0.01 vs buffer) | Tolerability of the doses used (previously shown) [2] | Plasma half-life [3] | Tolerability of treatments [1] | Effect on virus lung titers (SARS-CoV (Urbani); mouse, in vivo) | Reduction of virus lung titers (SARS-CoV (Urbani); mouse, in vivo) | Reduction of virus titers (SARS-CoV (Urbani); mouse, in vivo) | Virus titer reductions (range over regimens) (SARS-CoV (Urbani); mouse, in vivo) | Dose found to be safe for humans [4]
1 | Poly-ICLC | 0.0 g | ~3 log 10 units | 2.9 ± 0.1 Log10 CCID50/g | – | – | – | – | – | – | – | –
2 | Ac-SDAAVDTSSEITTKDLKEKKEVVEEAEN-OH [thymosin alpha-1] | – | – | – | well tolerated | about two | very well tolerated | significantly reduced virus lung titers | about one | approximately 0.5 log10 unit | 0.5-1.0 log10 units | ≤ 16 mg/kg body weight/day
